Assays:
[1] = system: F508del-CFTR-YFP-FRT cells; assay: Anionophore anion transport in F508del-CFTR-YFP-FRT cells; format: cell-based, Fischer rat; conditions: for anion transport in control F508del-CFTR-YFP-FRT cells / additivity of anion transport to rescue of F508del-CFTR: 50 μM; for anion transport in control F508del-CFTR-YFP-FRT cells: cells grown at 37 °C; for additivity of anion transport to rescue of F508del-CFTR: 27 °C or lumacaftor rescue; for anion transport when added together with forskolin and ivacaftor: anionophore 50 μM, forskolin 10 μM, ivacaftor 1 μM
Text: To learn whether anionophores are additive to small molecules that rescue disease-causing CFTR variants, we used FRT cells co-expressing F508del-CFTR, the predominant CF mutation and YFP-H148Q/I152L (F508del-CFTR-YFP-FRT cells).[28] To rescue the plasma membrane expression of F508del-CFTR, we used low temperature or the clinically-licensed CFTR corrector lumacaftor,[38],[39] while to increase its activity, we used the clinically-licensed CFTR potentiator ivacaftor.[40]
FRT cells stably expressing the halide sensor YFP-H148Q/I152L6 were generous gifts of AS Verkman (University of California, San Francisco), while CFBE41o- cells7 stably expressing YFP (YFP-CFBE cells) were a generous gift of LJV Galietta (Telethon Institute for Genetics and Medicine). YFP-FRT cells were cultured as described previously for FRT cells8 except that media contained 10% fetal bovine serum, 2 mM L-glutamine and the selection agent G418 (YFP-FRT cells, 0.5 mg ml-1; WT-CFTR-YFP-FRT cells, 0.75 mg ml-1) or zeocin […]
(F508del-CFTR-YFP-FRT cells, 0.5 mg ml-1). […]
U ml-1 penicillin and 100 mg ml-1 streptomycin. All cells were incubated at 37 °C in a humidified atmosphere with 5% CO2.
For fluorescence microplate reader studies, cells were seeded in 96-well plates and grown in culture media at 37 °C in a humidified atmosphere with 5% CO2 for 3 – 4 days until 90% confluent. To promote the plasma membrane expression of F508del-CFTR, prior to study F508del-YFP-FRT cells were either cultured at 27 °C for 24 h or treated with lumacaftor (3 µM) in YFP-FRT media containing 1% fetal bovine serum at 37 °C for 24 h. […]
Fluorescence plate reader assay […]
quenching of YFP fluorescence at 37 °C using a microplate reader following the method of Galietta et al..9 The microplate reader (model: FLUORstar Omega; BMG LABTECH Ltd., Aylesbury, UK) was equipped with a syringe pump and excitation (500 ± 10 nm) and emission (535 ± 15 nm) filters (Chroma Technology GmbH, Olching, Germany). After washing cells twice with PBS (composition (mM): 137 NaCl, 2.7 KCl, 8.1 Na2HPO4, 1.5 KH2PO4, 1 CaCl2 and 0.5 MgCl2, pH 7.40), cells were incubated with test anionophores (1 – 50 µM) or the vehicle (DMSO [0.1 – 0.5% v v-1]) in 40 µl of PBS for 10 – 120 minutes according to the experimental design. Other compounds, including forskolin, ivacaftor and channel inhibitors were added to […]
the PBS bathing cells 10 minutes prior to PBS iodide addition, whereas UTP was added to cells with the PBS iodide solution. Fluorescence was measured for 14 seconds; 2 seconds before and 12 seconds after injection of 110 µl PBS iodide solution (137 mM Cl- replaced by I-) into each well (to obtain a final concentration of I- of 100 mM).
We expressed cell fluorescence values (F) relative to the fluorescence value immediately before I- injection (F0), excluding the initial decrease, which likely represents the quenching of extracellular YFP released from cells and signal reduction accompanying the increase in solution volume bathing cells. To quantify anion transport by test anionophores, we determined the initial slope of the fluorescence decay following I - addition by fitting first order exponential functions to the last 12 seconds of each fluorescence recording. In each experim ent, n values represent the mean of two replicates and all treatments were tested at least three times using different microplates. […]
FRT cells was selected and the cells were perfused with (i) PBS for 5 minutes then (ii) PBS containing I- (10 mM) (made by preparing PBS with 127 mM NaCl to maintain osmolarity) for 5 minutes and finally (iii) PBS for 30 minutes to remove thoroughly I- from the perfusion chamber. YFP-FRT cells were repeatedly treated with I- (10 mM) and then washed with PBS […]
During all interventions, the rate of solution perfusion was 8 – 10 ml min-1; temperature was 37 °C and except for the first 15 minutes of PBS washing, no data were collected between cycles of I- perfusion and PBS […]
For cell fluorescence measurements, we used the Volocity (Improvision) data […]

YFP-FRT cells = assay: IncuCyte ZOOM apoptosis (annexin V red) in YFP-FRT cells; format: cell-based; conditions: for time from which apoptosis is apparent: 30 and 50 μM, P < 0.05 vs. DMSO; for induction of apoptosis: all concentrations tested, 24 h period
Protocol: To test for the induction of apoptosis by anionophores, we also used the IncuCyte ZOOMTM (Essen Bioscience) live-cell analysis system. YFP-FRT cells were seeded and grown on 96-well plates as described above for cell viability studies. After 48 h, the YFP-FRT culture media was replaced with fresh culture media containing test anionophores or the vehicle (DMSO 0.5% v v-1) and IncuCyte annexin V red reagent (Essen Bioscience) was added following the manufacturer’s instructions before the YFP-FRT cells were transferred to the IncuCyte ZOOMTM. At 2 h intervals over a 24 h period, 4 images of each well on 96-well plates were acquired; the phase contrast images were used to determine the total number of cells per well, while the fluorescence images to identify the number of apoptotic cells labelled red by the IncuCyte annexin V red reagent. In each experiment, one data point is the average value […]
Except for ivacaftor and lumacaftor (Selleck Chemicals; Stratech Scientific Ltd., Newmarket, UK), chemicals were supplied by the Sigma-Aldrich Company Ltd. (now Merck KGaA) (Gillingham, UK). UTP was dissolved in distilled water, forskolin in methanol, while anionophores and channel modulators were prepared in DMSO. Stock solutions were stored at –20 °C except those of anionophores, which were stored at room temperature. Immediately before use, stock solutions were diluted to final concentrations. Precautions against light-sensitive reactions were observed when using anionophores and channel modulators. DMSO […]
Previous work has identified that some anionophores trigger apop totic cell death.18,19,2018,19 Using the IncuCyte ZOOMTM live-cell analysis system and the IncuCyte annexin V red reagent, we assessed whether the anionophores 11, 12, 15 and 19 induce […]
concentrations ≥ 10 µM with the effects of 30 and 50 µM apparent from as early as 2 h (P < […]
concentrations tested over the 24 h period studied (P > 0.05 vs. DMSO 0.5% v v-1) (Fig. S25). […]
the data re-affirm the promising biological activity of anionophore 11.

Row | SMILES | anion transport in control F508del-CFTR-YFP-FRT cells [1] | additivity of anion transport to rescue of F508del-CFTR [1] | anion transport when added together with forskolin and ivacaftor [1] | time from which apoptosis is apparent (YFP-FRT cells) [h] | induction of apoptosis (YFP-FRT cells)
1 | CCOC(=O)[C@]12CC[C@@H](NC(=S)Nc3ccc([N+](=O)[O-])cc3)C[C@@H]1C[C@@H](NC(=S)Nc1ccc([N+](=O)[O-])cc1)CC2 [Compound 12] | mediated anion transport | additive | increased further the amount of anion transport | ≥ 2 | positive effects
2 | CCOC(=O)[C@]12CC[C@@H](NC(=S)Nc3cc(C(F)(F)F)cc(C(F)(F)F)c3)C[C@@H]1C[C@@H](NC(=S)Nc1cc(C(F)(F)F)cc(C(F)(F)F)c1)CC2 [Compound 15] | mediated anion transport | additive | increased further the amount of anion transport | ≥ 2 | positive effects
3 | FC(F)(F)c1cc(NC(=S)NCCN(CCNC(=S)Nc2cc(C(F)(F)F)cc(C(F)(F)F)c2)CCNC(=S)Nc2cc(C(F)(F)F)cc(C(F)(F)F)c2)cc(C(F)(F)F)c1 [Compound 19] | mediated anion transport | additive | increased further the amount of anion transport | ≥ 2 | positive effects
